The values below come from patent US20140343001A1, “INDOLE DERIVATIVES INHIBITORS OF ENZYME LACTATE DEHYDROGENASE (LDH)” (Universitá di Pisa, priority 2011, published 2014).

Molecules are shown by their SMILES.

The first test concerns the target T1, hLDH5 (LDH-A) (Homo sapiens, UniProt P00338).
T1 construct: purchased LEEBIO (USA)
Briefly: Enzyme inhibition of human lactate dehydrogenase isoform 5. Format: biochemical. To be noted: ranges of values; 37° C., pH 7.4; read-out: inhibitory activity against hLDH5 (Ki). How it is done: The compounds described in the examples were evaluated in enzymatic assays to assess its inhibitory properties against two human isoforms of lactate dehydrogenase, hLDH5 containing solely the subunit LDH-A (LEEBIO—USA), and the hLDH1 containing only the LDH subunits-B (Sigma Aldrich, USA), in order to verify the selectivity of these compounds.
(for Ki measurements). Such assays were conducted in cells containing 200 μL of a solution comprising the reagents dissolved in phosphate buffer (KH2PO4 and K2HPO4) at pH 7.4.
IC50 values were calculated as described below. […] Seven different concentrations (in duplicate for each concentration) of compound were used to generate a concentration-response curve. […] Compound solutions were dispensed in 96-well plates (8 μL), then substrate and cofactor dissolved in buffer (152 μl) and enzyme solution (40 μl) were finally added. Dilution of the enzyme stock solution was made to allow a 10% consumption of the cofactor after 15 min. The eventual background fluorescence of the tested compounds or quenching of the NADH fluorescence by the tested compounds was subtracted. In addition to the compound test wells, each plate contained maximum and minimum controls. Assay plates were incubated at room temperature for 15 min and the final measurements were performed using Victor X3 Microplates reader (PerkinElmer®) at a fluorescence emission wavelength of 460 nm (excitation at 340 nm). IC50 were generated using the curve-fitting tool of GraphPad Prism].
The resulting data of enzymatic kinetic (the constants of Michaelis-Menten) were determined by analysis of non-linear regression.
Take `O=C(O)c1cc2c(C(F)(F)F)cc(-c3ccccc3)cc2n1O[C@@H]1O[C@H](CO)[C@@H](O)[C@H](O)[C@H]1O` [Example 2, 6-phenyl-1-(β-D-glucopyranosyl)oxy-4-(trifluoromethyl)-1H-indole-2-carboxylic acid]: the Ki is 10 to 100 µM.
Consider `COC(=O)c1cc2c(C(F)(F)F)cc(-c3ccc(OC(F)(F)F)cc3)cc2n1O` [Example 18, methyl 1-hydroxy-4-(trifluoromethyl)-6-(4-(trifluoromethoxy)phenyl)-1H-indole-2-carboxylate], for which the Ki is 1 to 10 µM.
In the case of `O=C(O)c1cc2c(C(F)(F)F)cc(-c3ccc(OC(F)(F)F)cc3)cc2n1O` [Example 24, 1-hydroxy-4-(trifluoromethyl)-6-(4-(trifluoromethoxy)phenyl)-1H-indole-2-carboxylic acid], the Ki fell in the range of 0.5 to 5 µM.

Staying with this test, now noted: ranges of values; room temperature, pH 7.4; read-out: inhibitory activity against hLDH5 (IC50).
For `COC(=O)c1cc2c(C(F)(F)F)cc(-c3ccccc3)cc2n1O[C@@H]1O[C@H](COC(C)=O)[C@@H](OC(C)=O)[C@H](OC(C)=O)[C@H]1OC(C)=O` [Example 5, methyl 6-phenyl-1-(β-d-2,3,4,6-tetra-O-acetylglucopyranosyl)oxy-4-(trifluoromethyl)-1H-indole-2-carboxylate], the IC50 lay within 50 to 500 µM.
The same measure, in the same setting: then `CCOC(=O)c1cc2c(C(F)(F)F)cc(-c3ccccc3)cc2n1O[C@@H]1O[C@H](CO)[C@@H](O)[C@H](O)[C@H]1O` [Example 6, ethyl 6-phenyl-1-(β-D-glucopyranosyl)oxy-4-(trifluoromethyl)-1H-indole-2-carboxylate], with 50 to 500 µM.
In the case of `CCOC(=O)c1cc2c(C(F)(F)F)cc(-c3ccccc3)cc2n1O[C@@H]1O[C@H](COC(C)=O)[C@@H](OC(C)=O)[C@H](OC(C)=O)[C@H]1OC(C)=O` [Example 7, ethyl 6-phenyl-1-(β-d-2,3,4,6-tetra-O-acetylglucopyranosyl)oxy-4-(trifluoromethyl)-1H-indole-2-carboxylate], the concentration for half-maximal inhibition (IC50) was > 100 µM.
`COC(=O)c1cc2c(C(F)(F)F)cc(-c3ccc(Cl)cc3Cl)cc2n1O[C@@H]1O[C@H](COC(C)=O)[C@@H](OC(C)=O)[C@H](OC(C)=O)[C@H]1OC(C)=O` [Example 11, methyl 6-(2,4-dichlorophenyl)-1-(β-d-2,3,4,6-tetra-O-acetylglucopyranosyl)oxy-4-(trifluoromethyl)-1H-indole-2-carboxylate]: the IC50 is > 100 µM.
`CCOC(=O)c1cc2c(C(F)(F)F)cc(-c3ccc(Cl)cc3Cl)cc2n1O[C@@H]1O[C@H](CO)[C@@H](O)[C@H](O)[C@H]1O` [Example 12, ethyl 6-(2,4-dichlorophenyl)-1-(β-D-glucopyranosyl)oxy-4-(trifluoromethyl)-1H-indole-2-carboxylate]: the IC50 was in the range of 50 to 500 µM.
Still for that read-out and setting: then `CCOC(=O)c1cc2c(C(F)(F)F)cc(-c3ccc(Cl)cc3Cl)cc2n1O[C@@H]1O[C@H](COC(C)=O)[C@@H](OC(C)=O)[C@H](OC(C)=O)[C@H]1OC(C)=O` [Example 13, ethyl 6-(2,4-dichlorophenyl)-1-(β-d-2,3,4,6-tetra-O-acetylglucopyranosyl)oxy-4-(trifluoromethyl)-1H-indole-2-carboxylate], with > 100 µM.
Consider `COC(=O)c1cc2c(C(F)(F)F)cc(-c3ccccc3)c(-c3ccccc3)c2n1O` [Example 14, methyl 1-hydroxy-6,7-diphenyl-4-(trifluoromethyl)-1H-indole-2-carboxylate], for which the IC50 lay in the range of 1 to 10 µM.
For `COC(=O)c1c(C)c2c(C(F)(F)F)cc(-c3ccccc3)cc2n1O` [Example 16, methyl 1-hydroxy-6-phenyl-3-methyl-4-(trifluoromethyl)-1H-indole-2-carboxylate], the IC50 was 1 to 10 µM.
For `COC(=O)c1c(C)c2c(C(F)(F)F)cc(-c3ccc(Cl)cc3Cl)cc2n1O` [Example 20, methyl 6-(2,4-dichlorophenyl)-1-hydroxy-3-methyl-4-(trifluoromethyl)-1H-indole-2-carboxylate], the half-maximal inhibitory concentration (IC50) was in the range of 1 to 10 µM.
Consider `COC(=O)c1cc2c(C(F)(F)F)cc(-c3ccc(Cl)c(Cl)c3)cc2n1O` [Example 21, methyl 6-(3,4-dichlorophenyl)-1-hydroxy-4-(trifluoromethyl)-1H-indole-2-carboxylate], for which the IC50 is > 100 µM.
